# From patent publication EP3638219B1, “COMPOSITION COMPRISING TERPINENE-4-OL FOR THE TREATMENT OF DEMODICOSIS” (priority 2017, dated 2018)
# How the values were obtained:
# demodex = details: components of TTO; WO06119174 A1 and WO09032773 A2; cited from earlier work
# [1] = Physical stability of terpinen-4-ol in aqueous media (phase separation, clarity); type: physicochemical
# Method: The compositions according to the invention are physically stable, i.e. clear, transparent and without precipitates, and substantially retain the initial content of the initial ingredient.
# For example, on a lab scale, terpinen-4-ol and a mixture of PPG-26 buteth-26 (b2), PEG-40 hydrogenated castor oil (b3) and trideceth-9 (b4) were mixed in water and stirred for about 30 minutes. Cocamidopropyl betaine was then added and a clear solution was obtained, which was verified as stable.
SMILES,activity against demodex in vitro (demodex),"behaviour in aqueous media ([1]; concentrations below 2% in weight/weight of the composition, in the presence of commonly used emulsifiers and surfactants)",behaviour in aqueous media ([1]; in the presence of Tween 20 in a weight ratio to terpinen-4-ol up to 5:1)
"C=C(C)C1CC=C(C)C(=O)C1 (stereo not shown) [carvone, reference compound]",active,–,–
CC1=CCC(O)(C(C)C)CC1 (stereo not shown) [terpinen-4-ol],active,tends to separate from aqueous media,two-phase system
